≈ marks a conversion by molar mass, not a printed value. Like-named read-outs stand apart in the source and are kept apart here. Marks after values point to notes of the source that are not given here.
Columns and labels:
[1] = test system: colon cancer (HCT116); assay: cells; type: cell-based; settings: Homo sapiens
[2] = in vitro; type: cell-based; settings: human, BJ1 normal skin fibroblast cells, 100 μg/mL
[3] = test system: normal skin fibroblast cell line (BJ1); assay: cells; type: cell-based; settings: Homo sapiens, Skin fibroblast, MTT, 48 h
[4] = test system: Bacillus mycoides; assay: microbe, parasite or virus in culture; type: cell-based
[5] = test system: hepatocellular carcinoma cell line (HePG2); assay: cells; type: cell-based; settings: Homo sapiens, 48 h
[6] = test system: HCT116; assay: DNA damage, comet assay, HCT116; type: cell-based, human
[7] = test system: Escherichia coli; assay: Agar well diffusion, E. coli; type: cell-based; settings: Escherichia coli, read-out: Inhibition zones diameter
[8] = test system: FASN; assay: qRT-PCR, FASN in HCT116 cells; type: cell-based, human; settings: versus negative samples
[9] = test system: skin cancer (A431); assay: cells; type: cell-based; settings: Homo sapiens, 48 h
[10] = test system: Bacillus mycoides; assay: microbe, parasite or virus in culture; type: cell-based; remark: listed apart in the source
[11] = test system: Candida albicans; assay: MIC by serial dilution (agar wells), C. albicans; type: cell-based
[12] = test system: Escherichia coli; assay: MIC by serial dilution (agar wells), E. coli; type: cell-based
[13] = test system: TP53; assay: qRT-PCR, TP53 in HCT116 cells; type: cell-based, human; settings: versus negative samples
Procedure: RNA was extracted from pancreas, prostate, lung and liver cell lines using a total RNA purification kit (Qiagen, Hilden, Germany) according to the manufacturer's instructions. An aliquot of RNA was diluted in RNase-free water to estimate RNA quantity. Aliquots were used immediately for reverse transcription (RT). cDNA synthesis was performed on extracted RNA, which was treated with DNase (Invitrogen, Germany) to remove any possible DNA contamination. The DNase-treated RNA was reverse transcribed into first-strand cDNA using the RevertAid First Strand cDNA Synthesis kit (Fermantas) according to the manufacturer's instructions. Determination of the pancreas, prostate, lung and liver cell line cDNA copy number was carried out using StepOne™ Real-Time PCR System from Applied Biosystems (Thermo Fisher Scientific, Waltham, MA USA). Gene expressions were detected by real-time PCR, which was performed using the Rotor-Gene Q system (Qiagen Company). A 25 µL reaction mixture consisted of 12.5 µL SYBR® Premix Ex TaqTM (TaKaRa, Biotech. Co. Ltd.), 0.5 µL of each primer (10 PMole) (Table 1), 1 µL cDNA (50 ng) and 10.5 µL RNase free water. The optimum amplification conditions were chosen empirically according to each tested gene. Generally, the amplification conditions include initial incubation (95.0 °C for 3 min), then 40 cycles of amplification with denaturation (95.0 °C for 15 s), annealing (55.0 °C for 30 s) and extension (72.0 °C for 30 s) steps then 71 cycles which started at 60.0 °C and then increased about 0.5 °C every 10 s up to 95.0 °C. Mean cycle threshold (Ct) values of triplicate samples are used for analysis. The Ct value indicates the fractional cycle number at which the amount of amplified target reaches a fixed threshold. Data from real-time PCR were analyzed using 2^−∆∆Ct method[38]–[40]. Data were represented as the fold change in target gene expression normalized to a House-Keeping gene (HKG) and relative to the control. β-actin was used as a HKG to normalize input RNA amount, RNA quality and reverse transcription efficiency.

[14] = test system: osteosarcoma cell line (HOS); assay: cells; type: cell-based; settings: Homo sapiens, 48 h
[15] = test system: Candida albicans; assay: Agar well diffusion, C. albicans; type: cell-based
[16] = test system: HCT116; assay: DNA fragmentation assay, HCT116; type: cell-based, human
[17] = read-out: Minimum inhibition concentration (MIC)
[18] = 0.00488 mg/mL, 150 µL in DMSO, 15 mm agar well
[19] = 0.00975 mg/mL, 150 µL in DMSO, 15 mm agar well
[20] = 0.0195 mg/mL, 150 µL in DMSO, 15 mm agar well
[21] = 0.0391 mg/mL, 150 µL in DMSO, 15 mm agar well
[22] = 0.0781 mg/mL, 150 µL in DMSO, 15 mm agar well
[23] = 0.1563 mg/mL, 150 µL in DMSO, 15 mm agar well
[24] = 0.3125 mg/mL, 150 µL in DMSO, 15 mm agar well
[25] = 0.625 mg/mL, 150 µL in DMSO, 15 mm agar well
[26] = 1.25 mg/mL, 150 µL in DMSO, 15 mm agar well
[27] = 2.50 mg/mL, 150 µL in DMSO, 15 mm agar well
[28] = 5.00 mg/mL, 150 µL in DMSO, 15 mm agar well
[29] = 10.0 mg/mL, 150 µL in DMSO, 15 mm agar well

Cc1ccc(S(=O)(=O)NC(=O)Nc2cc(C(F)(F)F)cc(C(F)(F)F)c2)cc1 [Compound 9, N-[(3,5-bis{Trifluoromethyl}phenyl)carbamoyl]-4-methylbenzenesulfonamide]
mortality at 100 µg/mL ([1]; HCT-116, 48 h, 100 μg/mL): 100% | IC50 ([1]; HCT-116, MTT, 48 h): 17.8 ± 0.35 µM | mortality at 48 h, 100 µg/mL [2]: 28 ± 0.61% | IC50 [3]: 52.5 ± 0.74 µM | Inhibition zones diameter ([4]; B. mycoides, 200 μL of 10 mg/mL in DMSO in 15 mm holes, overnight 37 °C): 41 ± 0.0 mm | zone of inhibition at 10000 µg/mL ([4]; Bacillus mycoides, read-out: Inhibition zones diameter): 41 mm | mortality at 100 µg/mL ([5]; 100 μg/mL): 100% | IC50 ([5]; MTT): 12.4 ± 0.17 µM | DNA damaged cells % (mean ± SEM) [6]: 19.75 ± 1.25^b % | Class 0 (no tail), number of cells ([6]; of 400 cells analyzed): 321 | Class 1 (tail length < diameter of nucleus), number of cells ([6]; of 400 cells analyzed): 37 | Class 2 (tail length between 1 and 2 × the diameter of nucleus), number of cells ([6]; of 400 cells analyzed): 24 | Class 3 (tail length > 2 × the diameter of nucleus), number of cells ([6]; of 400 cells analyzed): 18 | No. of cells, Comets ([6]; of 400 cells analyzed): 79 | zone of inhibition at 10000 µg/mL [7]: 37 ± 0.74 mm | FASN gene expression level [8]: suppression | mortality at 100 µg/mL ([9]; A-431, 100 μg/mL): 100% | IC50 ([9]; A-431, MTT): 113.3 ± 0.68 µM | zone of inhibition at 4.88 µg/mL ([10]; read-out: Inhibition zone): 0 mm | zone of inhibition at 9.75 µg/mL ([10]; read-out: Inhibition zone): 0 mm | zone of inhibition at 19.5 µg/mL ([10]; read-out: Inhibition zone): 16 mm | zone of inhibition at 39.1 µg/mL ([10]; read-out: Inhibition zone): 17 mm | zone of inhibition at 78.1 µg/mL ([10]; read-out: Inhibition zone): 21 mm | zone of inhibition at 156.3 µg/mL ([10]; read-out: Inhibition zone): 25 mm | zone of inhibition at 312.5 µg/mL ([10]; read-out: Inhibition zone): 28 mm | zone of inhibition at 625 µg/mL ([10]; read-out: Inhibition zone): 29 mm | zone of inhibition at 1250 µg/mL ([10]; read-out: Inhibition zone): 30 mm | zone of inhibition at 2500 µg/mL ([10]; read-out: Inhibition zone): 32 mm | zone of inhibition at 5000 µg/mL ([10]; read-out: Inhibition zone): 33 mm | zone of inhibition at 10000 µg/mL ([10]; read-out: Inhibition zone): 33 mm | MIC [10, 17]: 19.5 µg/mL (≈ 45.7 µM) | zone of inhibition at 4.88 µg/mL [11, 18]: 0 mm | zone of inhibition at 9.75 µg/mL [11, 19]: 0 mm | zone of inhibition at 19.5 µg/mL [11, 20]: 0 mm | zone of inhibition at 39.1 µg/mL [11, 21]: 16 mm | zone of inhibition at 78.1 µg/mL [11, 22]: 20 mm | zone of inhibition at 156.3 µg/mL [11, 23]: 23 mm | zone of inhibition at 312.5 µg/mL [11, 24]: 25 mm | zone of inhibition at 625 µg/mL [11, 25]: 28 mm | zone of inhibition at 1250 µg/mL [11, 26]: 32 mm | zone of inhibition at 2500 µg/mL [11, 27]: 34 mm | zone of inhibition at 5000 µg/mL [11, 28]: 35 mm | zone of inhibition at 10000 µg/mL [11, 29]: 36 mm | MIC [11, 17]: 39.1 µg/mL (≈ 91.7 µM) | zone of inhibition at 4.88 µg/mL [12, 18]: 0 mm | zone of inhibition at 9.75 µg/mL [12, 19]: 0 mm | zone of inhibition at 19.5 µg/mL [12, 20]: 0 mm | zone of inhibition at 39.1 µg/mL [12, 21]: 0 mm | zone of inhibition at 78.1 µg/mL [12, 22]: 16 mm | zone of inhibition at 156.3 µg/mL [12, 23]: 20 mm | zone of inhibition at 312.5 µg/mL [12, 24]: 25 mm | zone of inhibition at 625 µg/mL [12, 25]: 30 mm | zone of inhibition at 1250 µg/mL [12, 26]: 32 mm | zone of inhibition at 2500 µg/mL [12, 27]: 33 mm | zone of inhibition at 5000 µg/mL [12, 28]: 34 mm | zone of inhibition at 10000 µg/mL [12, 29]: 35 mm | MIC [12, 17]: 78.1 µg/mL (≈ 183 µM) | TP53 gene expression level [13]: suppression | mortality at 100 µg/mL ([14]; 100 μg/mL): 100% | IC50 ([14]; MTT): 17.6 ± 0.24 µM | Inhibition zones diameter ([15]; C. albicans, 200 μL of 10 mg/mL in DMSO in 15 mm holes, overnight 37 °C): 41 ± 0.21 mm | zone of inhibition at 10000 µg/mL ([15]; Candida albicans, read-out: Inhibition zones diameter): 41 mm | Change (DNA fragmentation versus untreated cells) [16]: 18.10 | DNA fragmentation % M ± SEM ([16]; IC50 concentration, 24 h): 29.0 ± 0.54^a % | Inhibition ([16]; doxorubicin = 0.00): -13.81

Reference: publication PMC10579241, “Impact of trifluoromethyl and sulfonyl groups on the biological activity of novel aryl-urea derivatives: synthesis, in-vitro, in-silico and SAR studies” (Scientific Reports, 2023)
